Legend:
[1] = test system: Arabidopsis thaliana third true leaf; experiment: Growth (kinematic) analysis of the third leaf after transfer of seedlings to mannitol- or ACC-containing medium; format: in vivo
Experimental: Arabidopsis seedlings were germinated and grown on nylon meshes overlaying control medium until 9 days after stratification (DAS), when the third true leaf is fully proliferating (Skirycz et al., 2010), and subsequently transferred to control or mannitol-containing medium (FIGS. 1A to 10). Kinematic analysis was performed, whereby leaves were harvested daily throughout development of leaf 3 (9-20 DAS) and based on drawings of the abaxial epidermis cell number, cell area, number of guard cells and cell division and cell expansion rates were calculated (De Veylder et al., 2001). […] Leaf and plant morphology were not altered by mannitol (FIG. 2C). Cell expansion was also affected by stress and the reduced final leaf area was a combination of fewer and smaller cells (FIG. 2D). The stomatal index, which represents the number of stomata as a fraction of the total number of cells, was reduced as well (FIG. 2E). To learn more about the mechanisms underlying the rapid reduction of cell division upon stress onset, we harvested leaf samples daily after transfer. As a measure of cellular differentiation, the ploidy distribution was examined by flow cytometry. […] In stressed leaves, 4C nuclei started to accumulate approximately one day earlier than in controls at the expense of 2C nuclei (FIG. 3A). Analogously, the number of 8C nuclei increased sharply at 14 DAS in stressed leaves, but only at 15 DAS in control samples (FIG. 3A). Again, transfer itself had no effect on ploidy levels (not shown). […] This observation was further investigated with a CYCB1;1:Dbox-GUS reporter line. Staining for CYCB1;1:Dbox-GUS activity visualizes cells at the G2-to-M transition, reflecting mitotic activity (Colón-Carmona et al., 1999). The most apparent differences were observed 48 h after transfer. […] While the relative size of the cell proliferation zone was similar in mannitol-treated leaves, the remaining proliferating cells were found in a dispersed pattern throughout this zone. […] Within a few days after transfer, division rates adapted to the new conditions and compensation effects were observed.
Seedlings of Arabidopsis thaliana (L.) Heyhn. ecotype Columbia-0 (Col-0) were grown in vitro in half-strength Murashige and Skoog medium (Murashige and Skoog, 1962), supplemented with 1% sucrose under a 16-h day (110 μmol m^−2 s^−1) and 8-h night regime. Plates were overlaid with nylon mesh (Prosep, Zaventem, Belgium) of 20 μm pore size to avoid that roots grew into the medium. Depending on the experiment, 32 or 64 seeds were equally distributed on a 150-mm diameter plate. Mutant plants were grown together with their wild-type controls on the same plate.
(§1) At 9 DAS, when the third leaf is fully proliferating, seedlings were transferred to plates containing control medium or medium supplemented with 25 mM mannitol (Sigma-Aldrich) or 5 μM ACC (Sigma-Aldrich) by gently lifting the nylon mesh with forceps. For the CDKA activity assay the transfer was done at 11 DAS; at this stage, the third leaf is still dividing and can be quickly harvested without the need for RNAlater solution (see below) that would inhibit CDKA activity. All transfers were performed 2-3 h into the day.
Growth analysis was performed on the third true leaf harvested at different time points after transfer. After clearing with 70% ethanol, leaves were mounted in lactic acid on microscopic slides. For each experiment, 8-12 leaves were photographed with a binocular, and epidermal cells (40-300) were drawn for four representative leaves with a DMLB microscope (Leica) fitted with a drawing tubus and a differential interference contrast objective. Photographs of leaves and drawings were used to measure leaf and cell area, respectively, with ImageJ v1.41o (NIH; http://rsb.info.nih.gov/ij/), from which the cell numbers were calculated. The stomatal index was defined as the percentage of stomata per all cells. […]

[2] = test system: Arabidopsis thaliana third true leaf; experiment: Ploidy analysis of leaf 3 by flow cytometry (endoreduplication onset); format: in vivo; conditions: transfer at 9 DAS to 25 mM mannitol or 5 μM ACC
Experimental: Arabidopsis seedlings were germinated and grown on nylon meshes overlaying control medium until 9 days after stratification (DAS), when the third true leaf is fully proliferating (Skirycz et al., 2010), and subsequently transferred to control or mannitol-containing medium (FIGS. 1A to 10). Kinematic analysis was performed, whereby leaves were harvested daily throughout development of leaf 3 (9-20 DAS) and based on drawings of the abaxial epidermis cell number, cell area, number of guard cells and cell division and cell expansion rates were calculated (De Veylder et al., 2001). […] Leaf and plant morphology were not altered by mannitol (FIG. 2C). Cell expansion was also affected by stress and the reduced final leaf area was a combination of fewer and smaller cells (FIG. 2D). The stomatal index, which represents the number of stomata as a fraction of the total number of cells, was reduced as well (FIG. 2E). To learn more about the mechanisms underlying the rapid reduction of cell division upon stress onset, we harvested leaf samples daily after transfer. […]
For flow cytometry analysis, nuclei were extracted by chopping 4-32 leaves with a razor blade in 1 ml of 45 mM MgCl2, 30 mM sodium citrate, 20 mM 3-(N-morpholino)propanesulfonic acid, pH 7, and 1% Triton X-100 (Galbraith et al., 1983). […] The nuclei were analyzed with a CyFlow flow cytometer with the FloMax Software (Partec).

[3] = test system: CYCB1;1:Dbox-GUS reporter line; experiment: CYCB1;1:DBox-GUS staining of mitotic activity in leaf 3; format: in vivo, Arabidopsis thaliana; conditions: 48 h after transfer to 25 mM mannitol or 5 μM ACC
Experimental: Arabidopsis seedlings were germinated and grown on nylon meshes overlaying control medium until 9 days after stratification (DAS), when the third true leaf is fully proliferating (Skirycz et al., 2010), and subsequently transferred to control or mannitol-containing medium (FIGS. 1A to 10). Kinematic analysis was performed, whereby leaves were harvested daily throughout development of leaf 3 (9-20 DAS) and based on drawings of the abaxial epidermis cell number, cell area, number of guard cells and cell division and cell expansion rates were calculated (De Veylder et al., 2001). […] Leaf and plant morphology were not altered by mannitol (FIG. 2C). Cell expansion was also affected by stress and the reduced final leaf area was a combination of fewer and smaller cells (FIG. 2D). The stomatal index, which represents the number of stomata as a fraction of the total number of cells, was reduced as well (FIG. 2E). To learn more about the mechanisms underlying the rapid reduction of cell division upon stress onset, we harvested leaf samples daily after transfer. As a measure of cellular differentiation, the ploidy distribution was examined by flow cytometry. […] In stressed leaves, 4C nuclei started to accumulate approximately one day earlier than in controls at the expense of 2C nuclei (FIG. 3A). […]

[4] = test system: CDKA; experiment: CDKA activity assay on protein extracted from proliferating third leaves; format: in vivo, Arabidopsis thaliana
Experimental: as §1
Total soluble protein was extracted from 50 leaves by adding extraction buffer (Van Leene et al., 2007) to ground samples, followed by two freeze-thaw steps and two centrifugation steps (20,817 g, 10 min, 4° C.), whereby the supernatant was collected each time. Equal amounts of total protein were incubated with p9^CKS1Hs-sepharose beads (De Veylder et al., 1997) and kinase assays were performed as described (De Veylder et al., 1997) with histone H1 as CDK substrate. To correct for the amount of CDKA protein purified by p9^CKS1Hs-sepharose beads, an aliquot of each sample was used for protein gel blot analysis with primary rabbit anti-PSTAIRE antibodies (Santa Cruz) (diluted 1:5000) and a secondary horseradish peroxidase-conjugated donkey anti-rabbit antibodies (GE-Healthcare) (diluted 1:10,000). Proteins were detected by chemiluminescence (Western Lightning Plus ECL, PerkinElmer Life Sciences). CDK activity and CDKA amount were quantified with ImageJ v1.41o. Control samples were arbitrarily set at 100%.

[5] = test system: CDKB2;1 and CYCB1;1; experiment: Expression of mitotic cell cycle genes CDKB2;1 and CYCB1;1; format: in vivo, Arabidopsis thaliana; conditions: 5 μM ACC
[6] = transfer at 9 DAS to 25 mM mannitol or 5 μM ACC, leaf 3

For 1-aminocyclopropane-1-carboxylate [ACC], the “ACC-related decrease in leaf area” value ([1]; ein3.1 and eil1 mutants) was “comparable to that of the wild-type”, the “ACC-related decrease in leaf area” value ([1]; etr1.3, ein5.1, mkk9 and ein2.5 mutants, versus wild type) was “significantly less” and the cell proliferation rates [1, 6] was “rapid reduction of cell proliferation rates”. The stomatal index [1, 6] was “not affected”, the endoreduplication onset [2] was “no changes in endoreduplication onset” and the “number of mitotic cells (CYCB1;1:DBox-GUS activity)” value [3] was “no changes in the number of mitotic cells”. The CDKA activity reduced ([4]; ACC treatment, etr1.3 and ein5.1 mutants) was “not”, the CDKA activity ([4]; ACC treatment, wild-type and ein3.1) was “reduced” and the CDKA activity ([4]; wild type, 10 and 24 h after transfer to 25 mM mannitol or 5 μM ACC) was “decreased as early as 10 h after transfer”. The “expression of mitotic cell cycle genes CDKB2;1 and CYCB1;1” value [5] was “no difference”.
